Assay [1] has as its target T1, Mer (Homo sapiens (Human), UniProt Q12866). Put plainly: Human Mer kinase assay (33P radiometric, KinaseProfiler). It is filed as biochemical. The following applies: 10 μM ATP. As to the method:
Kinase activity and compound inhibition were investigated using the ^33P-Phosphoryl transfer radiometric kinase assay, performed using the KinaseProfiler™ service of Eurofins Pharma Discovery Services UK Limited. Dose-response experiments were performed using nine compound concentrations in a 96-well microtiter plate. For each assay, all compounds were prepared to a 50× final assay concentration (50 μM) in 100% DMSO, then diluted in a half-log series, with the final top concentration at 1 μM. This working stock of the compound was added to the assay well as the first component in the reaction, followed by the remaining components as detailed in the following assay protocols below. The positive control wells (100% kinase activity) contain all components of the reaction including 2% DMSO (control for solvent effects), except the compound of interest. Blank wells contain all components of the reaction, with the reference inhibitor, staurosporine. This reference compound was used to abolish kinase activity and generated the 0% kinase activity base-line. IC50 values were calculated by nonlinear regression analysis using the sigmoidal dose-response (variable slope) curve fit on XLFit version 5.3 (ID Business Solutions).
Human Mer (residues R557-E882 with H628Q and R794A, 0.7 nM) was incubated with 8 mM MOPS pH 7.0, 0.2 mM EDTA, 30 mM NaCl, 250 μM GGMEDIYFEFMGGKKK (SEQ ID NO. 44), 10 mM magnesium acetate, and 10 μM [γ-^33P-ATP]. The reaction was initiated by the addition of the Mg/ATP mix. After incubation for 40 minutes at room temperature, the reaction was stopped by the addition of phosphoric acid to a concentration of 0.5%. A reaction aliquot of 10 μL was then spotted onto a P30 filtermat and washed four times for 4 minutes in 0.425% phosphoric acid and once in methanol prior to drying and scintillation counting. Incorporated ^33P was measured using the Wallac Microbeta scintillation counter (Perkin Elmer).
Target sequence in this assay (Q12866 557-882): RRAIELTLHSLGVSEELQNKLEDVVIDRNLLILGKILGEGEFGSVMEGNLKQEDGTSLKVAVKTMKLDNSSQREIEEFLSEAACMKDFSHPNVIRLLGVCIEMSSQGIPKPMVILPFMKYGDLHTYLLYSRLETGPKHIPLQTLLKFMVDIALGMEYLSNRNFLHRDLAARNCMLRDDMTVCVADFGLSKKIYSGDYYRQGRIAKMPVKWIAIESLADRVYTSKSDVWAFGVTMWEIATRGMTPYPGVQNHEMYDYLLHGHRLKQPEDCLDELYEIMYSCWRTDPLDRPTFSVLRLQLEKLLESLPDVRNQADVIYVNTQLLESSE

Another assay has as its target AXL (Homo sapiens (Human), UniProt P30530). Put plainly: AXL autophosphorylation ELISA in A-172 cells. In kind it is cell-based. To be noted: cellular, Gas6-stimulated, phospho-AXL ELISA. Put shortly: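 A-172 glioblastoma cells, serum-starved 24 h, took compounds for 1 h (8-point curve, 0.3% DMSO) before 15 min stimulation with 1 μg/mL recombinant human Gas6. Lysate phospho-AXL measured by ELISA against a phospho-AXL standard, normalized to DMSO (100%) and reference inhibitor (0%); IC50 from 4-parameter logistic fit.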
(In general: An ELISA detects its analyte on a solid surface through an enzyme-linked reagent.)

In assay [2] the target is T1, Mer. Put plainly: Mer autophosphorylation ELISA in transient transfected 293A cells. In kind it is cell-based. The following applies: cellular, MERTK-transfected 293A cells, phospho-Mer ELISA. In a few lines:
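293A cells transiently transfected with human MERTK DNA, then treated 1 h with 8-point compound dilutions in serum-free medium (0.3% DMSO). Phospho-Mer in lysates quantified by sandwich ELISA against phospho-Mer standard; normalised to DMSO (100%) and reference inhibitor (0%), IC50 from 4-parameter logistic fit.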
Target sequence in this assay (Q12866 21-999): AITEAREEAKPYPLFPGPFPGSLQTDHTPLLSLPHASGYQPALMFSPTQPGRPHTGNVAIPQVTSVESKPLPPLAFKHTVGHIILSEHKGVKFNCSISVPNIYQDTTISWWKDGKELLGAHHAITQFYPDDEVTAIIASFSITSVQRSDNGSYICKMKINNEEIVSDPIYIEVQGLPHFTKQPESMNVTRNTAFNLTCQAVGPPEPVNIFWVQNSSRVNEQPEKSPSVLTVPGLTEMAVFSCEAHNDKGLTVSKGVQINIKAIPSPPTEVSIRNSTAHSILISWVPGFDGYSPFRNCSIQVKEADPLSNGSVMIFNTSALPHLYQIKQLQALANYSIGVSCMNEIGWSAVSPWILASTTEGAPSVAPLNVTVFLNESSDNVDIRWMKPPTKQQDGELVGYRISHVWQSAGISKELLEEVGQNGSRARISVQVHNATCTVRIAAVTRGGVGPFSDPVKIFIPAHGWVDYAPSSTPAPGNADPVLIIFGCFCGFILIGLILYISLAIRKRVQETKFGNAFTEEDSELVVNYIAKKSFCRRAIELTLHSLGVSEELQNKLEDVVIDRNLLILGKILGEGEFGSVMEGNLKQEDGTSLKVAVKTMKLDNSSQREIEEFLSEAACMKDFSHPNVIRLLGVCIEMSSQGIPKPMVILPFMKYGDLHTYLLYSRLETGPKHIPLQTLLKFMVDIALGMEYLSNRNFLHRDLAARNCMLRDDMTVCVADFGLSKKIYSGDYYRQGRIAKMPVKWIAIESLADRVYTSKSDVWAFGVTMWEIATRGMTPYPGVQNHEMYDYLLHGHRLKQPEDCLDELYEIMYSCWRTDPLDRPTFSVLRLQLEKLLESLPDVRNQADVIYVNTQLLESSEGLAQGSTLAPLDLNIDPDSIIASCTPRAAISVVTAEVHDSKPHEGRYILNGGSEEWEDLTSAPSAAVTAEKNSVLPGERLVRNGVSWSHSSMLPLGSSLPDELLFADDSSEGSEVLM

Each structure is given as a SMILES string.

Chain of AXL (P30530 26-894): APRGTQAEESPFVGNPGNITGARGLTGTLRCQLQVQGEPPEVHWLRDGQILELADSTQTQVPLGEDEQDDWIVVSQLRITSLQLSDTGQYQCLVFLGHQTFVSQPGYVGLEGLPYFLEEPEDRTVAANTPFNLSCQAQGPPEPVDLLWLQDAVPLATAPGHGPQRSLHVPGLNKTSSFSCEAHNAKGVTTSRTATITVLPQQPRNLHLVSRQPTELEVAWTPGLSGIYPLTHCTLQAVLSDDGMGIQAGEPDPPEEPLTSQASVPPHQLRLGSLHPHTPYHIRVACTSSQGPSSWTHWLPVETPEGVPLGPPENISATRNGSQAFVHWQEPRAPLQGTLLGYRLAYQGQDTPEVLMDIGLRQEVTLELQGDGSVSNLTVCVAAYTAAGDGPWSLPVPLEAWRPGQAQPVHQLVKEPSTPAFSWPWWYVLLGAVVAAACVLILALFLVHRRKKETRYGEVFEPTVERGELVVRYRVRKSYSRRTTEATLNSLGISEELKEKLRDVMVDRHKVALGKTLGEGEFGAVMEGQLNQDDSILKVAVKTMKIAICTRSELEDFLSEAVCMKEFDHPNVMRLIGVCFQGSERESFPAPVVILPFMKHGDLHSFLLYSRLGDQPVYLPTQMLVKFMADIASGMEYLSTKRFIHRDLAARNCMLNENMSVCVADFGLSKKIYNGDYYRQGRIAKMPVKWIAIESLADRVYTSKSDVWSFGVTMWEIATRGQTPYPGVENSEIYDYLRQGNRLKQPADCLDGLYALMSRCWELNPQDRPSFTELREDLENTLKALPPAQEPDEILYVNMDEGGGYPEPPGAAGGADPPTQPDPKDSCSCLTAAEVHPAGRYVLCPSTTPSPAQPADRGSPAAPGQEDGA

As to `COc1cc2nccc(Oc3ccc(NC(=O)C4(C(=O)Nc5ccc(F)cc5)CC4)cn3)c2nc1OC` [Compound 81, 1-N′-[6-[(6,7-Dimethoxy-1,5-naphthyridin-4-yl)oxy]pyridin-3-yl]-1-N-(4-fluorophenyl)cyclopropane-1,1-dicarboxamide], the IC50 (as a rule, the concentration needed to halve the response being measured) against Mer [1] fell in the range of 0.01 to 0.1 µM; against AXL, 0.1 to 0.3 µM.

For the compound `COc1cc2nccc(Oc3ncc(NC(=O)C4(C(=O)Nc5ccc(F)cc5)CC4)cc3Cl)c2nc1OC` [Compound 80, 1-N′-[5-Chloro-6-[(6,7-dimethoxy-1,5-naphthyridin-4-yl)oxy]pyridin-3-yl]-1-N-(4-fluorophenyl)cyclopropane-1,1-dicarboxamide], the results for the IC50 against Mer [1], on AXL and against Mer [2] were 0.01 to 0.1 µM, 0.1 to 0.3 µM and 0.1 to 0.3 µM, respectively.

For the compound `COc1cc2nccc(Oc3ncc(NC(=O)C4(C(=O)Nc5ccc(F)cc5)CC4)cc3F)c2nc1OC` [Compound 82, 1-N′-[6-[(6,7-Dimethoxy-1,5-naphthyridin-4-yl)oxy]-5-fluoropyridin-3-yl]-1-N-(4-fluorophenyl)cyclopropane-1,1-dicarboxamide], the figures for the IC50 at Mer [1], at AXL and against Mer [2] were no more than 0.01 µM, 0.01 to 0.1 µM and 0.01 to 0.1 µM, respectively.

In the case of `COC(=O)c1cc2c(Oc3ccc(NC(=O)C4(C(=O)Nc5ccc(F)cc5)CC4)cn3)ccnc2cc1OC` [Compound 10, Methyl 4-[5-[[1-[(4-fluorophenyl)carbamoyl]cyclopropanecarbonyl]-amino]pyridin-2-yl]oxy-7-methoxyquinoline-6-carboxylate], the IC50 was no more than 0.01 µM at Mer [1] and 0.01 to 0.1 µM at AXL.

As to `CNC(=O)c1cc2c(Oc3ccc(NC(=O)C4(C(=O)Nc5ccc(F)cc5)CC4)cn3)ccnc2cc1OC` [Compound 17, 1-N-(4-Fluorophenyl)-1-N′-[6-[7-methoxy-6-(methylcarbamoyl)quinolin-4-yl]oxypyridin-3-yl]cyclopropane-1,1-dicarboxamide], the concentration for half-maximal inhibition (IC50) at Mer [1] and on AXL was 0.01 to 0.1 µM throughout.

In the case of `COc1cc2nccc(Oc3ccc(NC(=O)C4(C(=O)Nc5ccc(F)cc5)CC4)cn3)c2cc1-c1cn[nH]c1` [Compound 60, 1-N-(4-Fluorophenyl)-1-N′-[6-[7-methoxy-6-(1H-pyrazol-4-yl)quinolin-4-yl]oxypyridin-3-yl]cyclopropane-1,1-dicarboxamide], the IC50 against Mer [1] was no more than 0.01 µM; on AXL, 0.01 to 0.1 µM; against Mer [2], 0.01 to 0.1 µM.

On to `COC(=O)c1cc2c(Oc3ncc(NC(=O)C4(C(=O)Nc5ccc(F)cc5)CC4)cc3Cl)ccnc2cc1OC` [Compound 11, Methyl 4-[3-chloro-5-[[1-[(4-fluorophenyl)carbamoyl]cyclopropanecarbonyl]-amino]pyridin-2-yl]oxy-7-methoxyquinoline-6-carboxylate], for which the IC50 was no more than 0.01 µM on Mer [1], 0.01 to 0.1 µM against AXL and 0.01 to 0.1 µM against Mer [2].

As to `COc1cc2nccc(Oc3ccc(NC(=O)C4(C(=O)Nc5ccc(F)cc5)CC4)cn3)c2cc1C(N)=O` [Compound 16, 1-N′-[6-(6-Carbamoyl-7-methoxyquinolin-4-yl)oxypyridin-3-yl]-1-N-(4-fluorophenyl)-cyclopropane-1,1-dicarboxamide], the IC50 against Mer [1] is no more than 0.01 µM; on AXL, 0.01 to 0.1 µM.

Take `COc1cc2nccc(Oc3ncc(NC(=O)C4(C(=O)Nc5ccc(F)cc5)CC4)cc3Cl)c2cc1C(N)=O` [Compound 18, 1-N′-[6-(6-Carbamoyl-7-methoxyquinolin-4-yl)oxy-5-chloropyridin-3-yl]-1-N-(4-fluorophenyl)cyclopropane-1,1-dicarboxamide]: the half-maximal inhibitory concentration (IC50) on Mer [1] was no more than 0.01 µM; on AXL, no more than 0.01 µM; against Mer [2], 0.01 to 0.1 µM.

(Values after US11673897B2, “Compounds for the treatment of kinase-dependent disorders” (Exelixis, Inc., priority 2018, dated 2023).)
